Test results: patent US5700480A, “Transdermal therapeutic system comprising galanthamine as active component” (priority 1993, dated 1997)

Experiments:
cholinesterase = settings: cited from earlier work
[1] = vs physostigmine or neostigmine; cited from earlier work
[2] = penetration through excized rodent (mice) skin, Franz' diffusion cells; assay type: in vitro ADME; settings: galanthamine, mice skin in vitro; addition of the acid as penetration enhancer
Description: 150 g 52.8% (w/w) active substance-containing adhesive solution result which is spread on an aluminized and siliconized polyethylene sheet by means of a 350 μm coating knife. After the solvents have been removed by drying for 30 min. up to 60° C., the adhesive film is covered with a polyester sheet (15 μm). An area of 16 cm^2 is punched by means of a suitable cutting tool and the edges are separated off. The release relating to both this and the other examples is listed in the table; the list indicates both the controlled release into a physiological saline and through excized rodent skin.
The in-vitro-release was determined in a shaking water bath at 37° C. The acceptor medium was 100 ml physiological saline which was completely changed after 2, 4 and 8 hours. The concentration was determined by HPLC after 2, 4, and 8 and 24 hours. The penetration through mice skin was measured by means of Franz' diffusion cells.

**Q.** Which “cholinesterase inhibition (in words)” value (cholinesterase; pharmacological properties) does the source give for `COc1ccc2c3c1OC1CC(O)C=CC31CCN(C)C2` (centres unmarked) [galanthamine, 4a,5,9,10,11,12-hexahydro-3-methoxy-11-methyl-6H-benzofuro (3a,3,2-ef) (2) benzazepin-6-ol] here?
**A.** Its value is “reversibly acting cholinesterase inhibitors”.

**Q.** What about the “cholinesterase inhibiting-action, relative to the dosage” value (cholinesterase; vs physostigmine or neostigmine) of the same compound?
**A.** The value was “slightly lower”.

**Q.** And the therapeutic range [1]?
**A.** Its therapeutic range is “three to six times broader”.

**Q.** What about the “toxicity (in words)” value [1] of the same compound?
**A.** Its value is “not as toxic as physostigmine or neostigmine”.

**Q.** With `CC(C)CCCCCCCCCCCCCCC(=O)O` [isostearic acid] as the compound, how does the “penetration rate increase by addition of acid” value (shortened to “penetration rate increase”) [2] read?
**A.** The value was 1.5 factor.

**Q.** For `CCCCCCCC(=O)O` [octanoic acid], which “penetration rate increase” value [2] is on record?
**A.** The value was 1.5 factor.

**Q.** Which “penetration rate increase” value [2] does the source give for `CCCCCCCC/C=C\CCCCCCCC(=O)O` [oleic acid] here?
**A.** The value was 1.5 factor.

**Q.** With `C=CCCCCCCCCC(=O)O` [undecenoic acid] as the compound, how does the “penetration rate increase” value [2] read?
**A.** Its value is 1.5 factor.
